Test results taken from patent publication US11306036B2, “Composition containing a urease inhibitor” (RHODIA OPERATIONS, priority 2016, dated 2022).

Assay: Stability test: remaining NBPT content on treated granulated urea after storage (HPLC)
Type: physicochemical
Settings: storage at 40° C., 50% humidity, up to 90 days
Procedure: The sample was prepared by mixing 6.00 g of TMBPA and 8.11 g of NBPT (98% purity) in 15.89 g of Augeo® SL 191 at a temperature of 25° C. The concentration of TMBPA was 20% and the concentration of NBPT was 26.5%. Then, the solution prepared was sprayed onto 50 g of granulated urea at a dosage of 0.3% of urea weight.
For stability tests, the treated granulated urea was kept at 40° C. and an atmospheric humidity of 50% for 30 days, 60 days and 90 days, respectively. The remaining NBPT content (expressed as percentages based on initial NBPT content) was measured by using HPLC analysis according to the standard procedure.

## CCCCNP(N)(N)=S [NBPT, N-(n-butyl)thiophosphoric acid triamide]
  stability of NBPT after application to the urea fertilizer (in words): poor stability
